One assay addresses T1, mTOR (Homo sapiens, UniProt P42345).
T1 construct: endogenous in cells; host or cells: Jurkat cells (ATCC TIB-152, clone E6-1), lysate
Description: mTOR kinobeads assay (dot blot detection). It is filed as binding. The method, boiled down:
(§1)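 Jurkat cell lysate (5 mg/ml protein) was incubated with test compounds and kinobeads (immobilized phenylthiazole and phenylmorpholin-chromen ligands) for 2 h in the cold with shaking. Bead-bound kinase was SDS-eluted and quantified by antibody dot blot with infrared detection. IC50 values came from dose-response curves.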

Assay [1] relates to S6RP serine-240/244 phosphorylation in HEK293T/17 cells. Description: In vitro phospho-S6 cellular assay (pS6RP S240/244). Type of assay: cell-based. The conditions noted are these: Homo sapiens, Table 6, 2 hours, S6RP Ser240/244, read-out: pS6 (phospho-S6 cell assay data, activity level). The method, boiled down: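 HEK293T/17 cells in DMEM with 2% FCS treated with 8 compound concentrations (0.1% DMSO) for 2 h at 37 °C, then lysed. Phospho-S6RP Ser240/244 or phospho-Akt Ser473 quantified by MesoScale sandwich immunoassay with Sulfo-Tag detection; IC50 from variable-slope sigmoidal fit.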

Assay [2] has as its target T2, DNA-dependent protein kinase (DNA-PK) (Homo sapiens, UniProt P78527).
T2 construct: endogenous in cells; host or cells: Jurkat cells (ATCC TIB-152, clone E6-1), lysate
Description: kinobeads assay, DNA-PK (dot blot detection). Type of assay: binding. The method, boiled down: as §1

The target in the next assay is T3, PI3K delta (PI3Kd) (Homo sapiens, UniProt O00329).
T3 construct: endogenous in cells; host or cells: Jurkat cells (ATCC TIB-152, clone E6-1), lysate
T3 sequence (O00329 whole entry): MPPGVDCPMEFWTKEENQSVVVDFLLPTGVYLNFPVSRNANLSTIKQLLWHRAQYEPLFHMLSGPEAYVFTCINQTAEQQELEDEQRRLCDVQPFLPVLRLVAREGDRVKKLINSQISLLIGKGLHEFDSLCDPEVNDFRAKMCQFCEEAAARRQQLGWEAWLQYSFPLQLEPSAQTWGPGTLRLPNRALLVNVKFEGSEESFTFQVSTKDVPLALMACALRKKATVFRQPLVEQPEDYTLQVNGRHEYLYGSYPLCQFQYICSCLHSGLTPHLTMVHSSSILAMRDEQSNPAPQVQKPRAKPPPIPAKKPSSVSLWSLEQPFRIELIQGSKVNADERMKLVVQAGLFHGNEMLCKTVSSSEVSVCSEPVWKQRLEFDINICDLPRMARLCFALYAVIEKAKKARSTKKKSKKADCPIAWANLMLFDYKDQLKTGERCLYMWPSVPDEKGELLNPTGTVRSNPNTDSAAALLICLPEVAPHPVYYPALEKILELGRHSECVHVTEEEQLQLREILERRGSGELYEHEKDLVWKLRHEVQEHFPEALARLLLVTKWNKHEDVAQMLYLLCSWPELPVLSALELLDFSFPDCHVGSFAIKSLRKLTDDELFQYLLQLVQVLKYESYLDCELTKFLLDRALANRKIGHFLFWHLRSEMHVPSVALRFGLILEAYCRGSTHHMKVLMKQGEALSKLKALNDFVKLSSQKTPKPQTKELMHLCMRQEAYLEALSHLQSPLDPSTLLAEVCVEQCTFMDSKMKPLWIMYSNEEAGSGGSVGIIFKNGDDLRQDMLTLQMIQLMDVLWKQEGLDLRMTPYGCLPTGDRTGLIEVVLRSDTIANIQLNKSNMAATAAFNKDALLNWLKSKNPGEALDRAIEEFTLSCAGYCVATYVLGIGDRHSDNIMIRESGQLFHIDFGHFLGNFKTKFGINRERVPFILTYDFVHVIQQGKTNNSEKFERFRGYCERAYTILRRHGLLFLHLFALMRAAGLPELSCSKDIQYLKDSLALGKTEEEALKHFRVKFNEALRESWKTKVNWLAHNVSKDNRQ
T3 sequence (P27986 whole entry partner): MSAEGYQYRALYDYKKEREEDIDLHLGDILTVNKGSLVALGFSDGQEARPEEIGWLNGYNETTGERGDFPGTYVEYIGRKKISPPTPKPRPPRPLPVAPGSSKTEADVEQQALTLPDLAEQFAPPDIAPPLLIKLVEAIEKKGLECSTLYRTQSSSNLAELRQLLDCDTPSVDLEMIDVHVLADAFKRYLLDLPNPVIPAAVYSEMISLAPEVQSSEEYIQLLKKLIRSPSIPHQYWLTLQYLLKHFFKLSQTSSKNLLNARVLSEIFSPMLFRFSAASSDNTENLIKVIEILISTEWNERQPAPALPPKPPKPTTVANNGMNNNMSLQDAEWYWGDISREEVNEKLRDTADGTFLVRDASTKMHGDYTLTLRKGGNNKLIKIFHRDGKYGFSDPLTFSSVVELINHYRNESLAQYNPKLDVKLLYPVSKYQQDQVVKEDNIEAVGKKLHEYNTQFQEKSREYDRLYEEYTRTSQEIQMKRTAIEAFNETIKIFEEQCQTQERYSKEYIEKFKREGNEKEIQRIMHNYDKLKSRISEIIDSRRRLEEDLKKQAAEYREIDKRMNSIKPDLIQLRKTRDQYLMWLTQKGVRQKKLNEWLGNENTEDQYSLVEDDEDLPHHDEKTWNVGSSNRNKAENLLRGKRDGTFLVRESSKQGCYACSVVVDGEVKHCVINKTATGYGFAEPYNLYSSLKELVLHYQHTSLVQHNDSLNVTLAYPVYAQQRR
Description: kinobeads assay, PI3K delta (dot blot detection). Type of assay: binding. The method, boiled down: as §1

Another assay has as its target T4, PI3Kβ (Homo sapiens, UniProt P42338).
T4 construct: endogenous in cells; host or cells: Jurkat cells (ATCC TIB-152) lysate, the only lysate described
Description: kinobeads assay, PI3K beta (dot blot detection). It is filed as binding. The conditions noted are these: Table 4, read-out: Inhibition values (IC50) PI3Kb.

Another assay concerns the target T5, PI3Kγ (Homo sapiens, UniProt P48736).
T5 construct: endogenous in cells; host or cells: Jurkat cells (ATCC TIB-152) lysate, the only lysate described
Description: kinobeads assay, PI3K gamma (dot blot detection). Type of assay: binding. The conditions noted are these: Table 4, read-out: Inhibition values (IC50) PI3Kg.

Another assay deals with T6, PI3Kα (Homo sapiens, UniProt P42336).
T6 construct: endogenous in cells; host or cells: Jurkat cells (ATCC TIB-152) lysate, the only lysate described
T6 sequence (P42336 whole entry): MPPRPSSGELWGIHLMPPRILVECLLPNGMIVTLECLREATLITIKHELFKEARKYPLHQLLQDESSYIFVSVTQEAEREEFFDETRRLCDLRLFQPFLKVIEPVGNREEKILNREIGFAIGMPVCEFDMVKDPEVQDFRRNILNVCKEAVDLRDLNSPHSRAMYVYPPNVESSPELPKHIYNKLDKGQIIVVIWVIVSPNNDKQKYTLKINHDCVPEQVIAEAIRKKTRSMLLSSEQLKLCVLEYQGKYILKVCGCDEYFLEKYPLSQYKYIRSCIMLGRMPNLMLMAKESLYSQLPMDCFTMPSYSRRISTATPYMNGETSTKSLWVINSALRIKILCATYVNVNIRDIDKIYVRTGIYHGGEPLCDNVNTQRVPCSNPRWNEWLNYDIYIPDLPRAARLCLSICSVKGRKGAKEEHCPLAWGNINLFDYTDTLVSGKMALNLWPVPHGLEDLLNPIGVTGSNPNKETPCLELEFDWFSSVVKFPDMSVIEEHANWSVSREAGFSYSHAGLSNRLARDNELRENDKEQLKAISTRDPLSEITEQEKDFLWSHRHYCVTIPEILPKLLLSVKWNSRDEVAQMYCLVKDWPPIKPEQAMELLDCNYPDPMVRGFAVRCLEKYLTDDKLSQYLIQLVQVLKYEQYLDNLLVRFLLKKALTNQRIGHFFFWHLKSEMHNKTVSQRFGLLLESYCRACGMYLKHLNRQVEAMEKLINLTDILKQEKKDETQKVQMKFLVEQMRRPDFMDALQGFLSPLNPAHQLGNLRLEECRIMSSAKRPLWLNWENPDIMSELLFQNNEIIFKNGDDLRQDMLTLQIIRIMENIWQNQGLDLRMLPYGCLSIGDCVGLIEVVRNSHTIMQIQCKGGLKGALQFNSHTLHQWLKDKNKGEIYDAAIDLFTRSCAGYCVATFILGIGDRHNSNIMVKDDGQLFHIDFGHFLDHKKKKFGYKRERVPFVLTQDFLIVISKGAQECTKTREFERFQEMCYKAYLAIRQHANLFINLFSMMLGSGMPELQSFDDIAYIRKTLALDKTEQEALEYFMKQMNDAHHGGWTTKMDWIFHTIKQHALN
T6 sequence (P27986 whole entry partner): as the sequence (P27986 whole entry partner) above
Description: kinobeads assay, PI3K alpha (dot blot detection). Type of assay: binding. The conditions noted are these: Table 4, read-out: Inhibition values (IC50) PI3Ka.

[3] abbreviates: Table 4, read-out: Inhibition values (IC50) mTOR.
Setting [4] is: Table 4, read-out: Inhibition values (IC50) DNAPK.
Where [5] appears, read: Table 4, read-out: Inhibition values (IC50) PI3Kd.
Where [6] appears, read: Table 2, Jurkat cell lysate, read-out: Inhibition values (IC50) mTor.
Where [7] appears, read: Table 2, Jurkat cell lysate, read-out: Inhibition values (IC50) DNAPK.
The mark [8] stands for this setting: Table 2, Jurkat cell lysate, read-out: Inhibition values (IC50) PI3Kd.

Where two headings read alike, the source gives them in different places. Bounds are passed on as bounds.

T4 sequence (P42338 whole entry): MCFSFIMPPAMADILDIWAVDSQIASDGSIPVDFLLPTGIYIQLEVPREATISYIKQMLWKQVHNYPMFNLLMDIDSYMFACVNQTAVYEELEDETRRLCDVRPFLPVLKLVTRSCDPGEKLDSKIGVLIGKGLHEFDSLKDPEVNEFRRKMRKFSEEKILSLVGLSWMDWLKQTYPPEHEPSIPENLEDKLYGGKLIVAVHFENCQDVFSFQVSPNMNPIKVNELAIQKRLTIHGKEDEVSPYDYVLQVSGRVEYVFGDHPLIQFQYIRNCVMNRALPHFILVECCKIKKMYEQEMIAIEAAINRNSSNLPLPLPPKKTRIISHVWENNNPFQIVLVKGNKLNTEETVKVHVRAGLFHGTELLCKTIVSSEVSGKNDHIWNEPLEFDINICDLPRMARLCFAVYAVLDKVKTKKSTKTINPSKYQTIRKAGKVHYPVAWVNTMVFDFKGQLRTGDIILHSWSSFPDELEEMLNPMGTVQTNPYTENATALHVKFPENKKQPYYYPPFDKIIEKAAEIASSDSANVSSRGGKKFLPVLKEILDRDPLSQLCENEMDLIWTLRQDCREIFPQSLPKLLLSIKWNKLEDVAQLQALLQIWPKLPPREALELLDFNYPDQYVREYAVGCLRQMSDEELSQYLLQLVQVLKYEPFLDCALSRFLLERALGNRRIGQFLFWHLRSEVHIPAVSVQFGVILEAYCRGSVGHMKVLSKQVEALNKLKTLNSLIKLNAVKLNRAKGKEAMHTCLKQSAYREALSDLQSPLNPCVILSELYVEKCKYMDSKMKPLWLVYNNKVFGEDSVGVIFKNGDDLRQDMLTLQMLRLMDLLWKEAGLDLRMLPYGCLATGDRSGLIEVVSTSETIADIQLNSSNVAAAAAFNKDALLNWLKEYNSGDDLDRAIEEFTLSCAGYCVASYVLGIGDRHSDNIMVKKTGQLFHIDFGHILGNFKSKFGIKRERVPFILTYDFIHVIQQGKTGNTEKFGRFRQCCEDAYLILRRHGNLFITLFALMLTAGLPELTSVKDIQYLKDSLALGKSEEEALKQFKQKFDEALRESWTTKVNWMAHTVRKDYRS
T4 sequence (P27986 whole entry partner): as the sequence (P27986 whole entry partner) above
T5 sequence (P48736 whole entry): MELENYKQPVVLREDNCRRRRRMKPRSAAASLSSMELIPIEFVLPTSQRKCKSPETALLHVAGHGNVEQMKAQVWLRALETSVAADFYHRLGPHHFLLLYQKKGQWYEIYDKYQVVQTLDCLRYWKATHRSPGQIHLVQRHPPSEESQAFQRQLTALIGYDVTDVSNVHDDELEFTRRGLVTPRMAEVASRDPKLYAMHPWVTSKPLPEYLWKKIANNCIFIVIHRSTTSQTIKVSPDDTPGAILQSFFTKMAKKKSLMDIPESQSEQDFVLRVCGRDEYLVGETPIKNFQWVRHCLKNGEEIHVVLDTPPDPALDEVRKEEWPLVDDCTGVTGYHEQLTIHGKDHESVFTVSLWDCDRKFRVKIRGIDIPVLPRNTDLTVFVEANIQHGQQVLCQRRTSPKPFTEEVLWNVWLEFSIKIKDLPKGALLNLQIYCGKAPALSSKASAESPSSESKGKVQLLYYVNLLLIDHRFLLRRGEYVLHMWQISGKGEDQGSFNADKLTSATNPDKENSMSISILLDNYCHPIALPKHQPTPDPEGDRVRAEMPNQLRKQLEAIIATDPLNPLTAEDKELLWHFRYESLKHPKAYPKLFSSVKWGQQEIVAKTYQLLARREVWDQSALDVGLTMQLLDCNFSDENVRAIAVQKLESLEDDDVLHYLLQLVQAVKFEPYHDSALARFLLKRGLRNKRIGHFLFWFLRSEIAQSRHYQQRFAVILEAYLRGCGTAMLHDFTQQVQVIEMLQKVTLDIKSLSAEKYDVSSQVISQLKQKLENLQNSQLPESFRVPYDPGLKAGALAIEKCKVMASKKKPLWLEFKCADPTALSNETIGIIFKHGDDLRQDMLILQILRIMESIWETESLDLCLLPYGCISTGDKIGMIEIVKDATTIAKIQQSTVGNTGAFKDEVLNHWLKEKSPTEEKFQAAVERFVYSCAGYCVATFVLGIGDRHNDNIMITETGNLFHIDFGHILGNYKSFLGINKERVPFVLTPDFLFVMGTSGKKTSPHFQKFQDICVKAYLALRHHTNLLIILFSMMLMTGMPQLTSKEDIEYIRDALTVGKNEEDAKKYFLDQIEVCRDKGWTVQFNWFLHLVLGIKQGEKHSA

On to `C[C@H](CO)NC(=O)Nc1ccc(-c2cc(-c3cc(F)ccc3S(C)(=O)=O)nc(N3CCOC[C@@H]3C)n2)cc1` [Example 73, 1-(4-(6-(5-fluoro-2-(methylsulfonyl)phenyl)-2-((S)-3-methylmorpholino)pyrimidin-4-yl)phenyl)-3-((R)-1-hydroxypropan-2-yl)urea], for which the IC50 on mTOR (setting [3]) was 0.1 to 1 µM; in assay [1] it was less than 0.1 µM; in assay [2] (setting [4]), not below 10 µM; on PI3K delta (PI3Kd) (setting [5]), not below 10 µM; on PI3Kβ, not below 10 µM; on PI3Kγ it was not below 10 µM. Besides, the IC50 on PI3Kα is not below 10 µM.
As to `C[C@H]1COCCN1c1nccc(-c2ccc(NC(=O)NC3CC3)cc2)n1` [Example 39, (S)-1-cyclopropyl-3-(4-(2-(3-methylmorpholino)pyrimidin-4-yl)phenyl)urea], the IC50 at mTOR (setting [6]) was 1 to 10 µM; at mTOR (setting [3]) it was 1 to 10 µM; in assay [1], 0.1 to 1 µM; in assay [2] (setting [7]), not below 10 µM; in assay [2] (setting [4]), not below 10 µM; at PI3K delta (PI3Kd) (setting [8]), not below 10 µM. Further, the IC50 at PI3K delta (PI3Kd) (setting [5]), at PI3Kβ, on PI3Kγ and on PI3Kα was not below 10 µM each time.
Take `CCNC(=O)Nc1ccc(-c2nccc(N3CC4CCC(C3)O4)n2)cc1` [Example 49, 1-(4-(4-(8-oxa-3-azabicyclo[3.2.1]octan-3-yl)pyrimidin-2-yl)phenyl)-3-ethylurea]: the IC50 on mTOR (setting [6]) is 0.1 to 1 µM; on mTOR (setting [3]), 0.1 to 1 µM; in assay [1], 0.1 to 1 µM; in assay [2] (setting [7]) it was 1 to 10 µM; in assay [2] (setting [4]) it was 1 to 10 µM; on PI3K delta (PI3Kd) (setting [8]) it was not below 10 µM. The IC50 at PI3K delta (PI3Kd) (setting [5]), at PI3Kβ, at PI3Kγ and at PI3Kα was not below 10 µM throughout.
As to `CCNC(=O)Nc1ccc(-c2ccnc(N3CCOCC3)n2)cc1` [Example 29, 1-ethyl-3-(4-(2-morpholinopyrimidin-4-yl)phenyl)urea], the IC50 is 1 to 10 µM on mTOR (setting [6]); 0.1 to 1 µM on mTOR (setting [3]); 0.1 to 1 µM in assay [1]; 1 to 10 µM in assay [2] (setting [7]); 1 to 10 µM in assay [2] (setting [4]); not below 10 µM at PI3K delta (PI3Kd) (setting [8]). Moreover, the IC50 at PI3K delta (PI3Kd) (setting [5]) is not below 10 µM; on PI3Kβ, 1 to 10 µM; at PI3Kγ it was not below 10 µM; on PI3Kα, 1 to 10 µM.
For `CCNC(=O)Nc1ccc(-c2cc(-c3ccccc3S(=O)(=O)N(C)C)nc(N3CCOC[C@@H]3C)n2)cc1` [Example 14, (S)-2-(6-(4-(3-ethylureido)phenyl)-2-(3-methylmorpholino)pyrimidin-4-yl)-N,N-dimethylbenzenesulfonamide], the IC50 on mTOR (setting [6]) was 0.1 to 1 µM; on mTOR (setting [3]), 0.1 to 1 µM; in assay [1], 0.1 to 1 µM; in assay [2] (setting [7]) it was not below 10 µM; in assay [2] (setting [4]), not below 10 µM; on PI3K delta (PI3Kd) (setting [8]), not below 10 µM. The IC50 on PI3K delta (PI3Kd) (setting [5]), at PI3Kβ, on PI3Kγ and at PI3Kα was not below 10 µM in each case.
With `C[C@H]1COCCN1c1ccnc(-c2ccc(NC(=O)NC3CC3)cc2)n1` [Example 35, (S)-1-cyclopropyl-3-(4-(4-(3-methylmorpholino)pyrimidin-2-yl)phenyl)urea], the IC50 at mTOR (setting [6]) is 0.1 to 1 µM; at mTOR (setting [3]), 0.1 to 1 µM; in assay [1], 0.1 to 1 µM; in assay [2] (setting [7]) it was not below 10 µM; in assay [2] (setting [4]), not below 10 µM; on PI3K delta (PI3Kd) (setting [8]) it was not below 10 µM. The IC50 at PI3K delta (PI3Kd) (setting [5]), on PI3Kβ, at PI3Kγ and at PI3Kα was not below 10 µM each time.
Regarding `CCNC(=O)Nc1ccc(-c2ccnc(N3CCOC[C@@H]3C)n2)cc1` [Example 38, (S)-1-ethyl-3-(4-(2-(3-methylmorpholino)pyrimidin-4-yl)phenyl)urea], the IC50 at mTOR (setting [6]) was 1 to 10 µM; on mTOR (setting [3]), 1 to 10 µM; in assay [1], 0.1 to 1 µM; in assay [2] (setting [7]), not below 10 µM; in assay [2] (setting [4]), not below 10 µM; at PI3K delta (PI3Kd) (setting [8]), not below 10 µM. Moreover, the IC50 at PI3K delta (PI3Kd) (setting [5]), at PI3Kβ, at PI3Kγ and on PI3Kα was not below 10 µM throughout.
Take `CCNC(=O)Nc1ccc(-c2cc(-c3cncc(S(C)(=O)=O)c3)nc(N3CCOC[C@@H]3C)n2)cc1` [Example 15, (S)-1-ethyl-3-(4-(2-(3-methylmorpholino)-6-(5-(methylsulfonyl)pyridin-3-yl)pyrimidin-4-yl)phenyl)urea]: the IC50 at mTOR (setting [6]) was 1 to 10 µM; at mTOR (setting [3]) it was 1 to 10 µM; in assay [1], 0.1 to 1 µM; in assay [2] (setting [7]), not below 10 µM; in assay [2] (setting [4]) it was not below 10 µM; at PI3K delta (PI3Kd) (setting [8]) it was not below 10 µM. Further, the IC50 on PI3K delta (PI3Kd) (setting [5]), at PI3Kβ, on PI3Kγ and on PI3Kα was not below 10 µM each time.
Consider `C[C@H]1COCCN1c1cc(-c2ccncc2)nc(-c2ccc(NC(=O)NC3CC3)cc2)n1` [Example 25, (S)-1-cyclopropyl-3-(4-(4-(3-methylmorpholino)-6-(pyridin-4-yl)pyrimidin-2-yl)phenyl)urea], for which the IC50 on mTOR (setting [6]) was 0.1 to 1 µM; at mTOR (setting [3]), 0.1 to 1 µM; in assay [1], 0.1 to 1 µM; in assay [2] (setting [7]), not below 10 µM; in assay [2] (setting [4]), not below 10 µM; on PI3K delta (PI3Kd) (setting [8]), not below 10 µM. The IC50 at PI3K delta (PI3Kd) (setting [5]), at PI3Kβ, on PI3Kγ and at PI3Kα was not below 10 µM throughout.
As to `C[C@H]1COCCN1c1nc(-c2ccc(NC(=O)NC3CC3)cc2)cc(-c2cccnc2)n1` [Example 7, (S)-1-cyclopropyl-3-(4-(2-(3-methylmorpholino)-6-(pyridin-3-yl)pyrimidin-4-yl)phenyl)], the IC50 was 1 to 10 µM on mTOR (setting [6]); 1 to 10 µM at mTOR (setting [3]); 0.1 to 1 µM in assay [1]; not below 10 µM in assay [2] (setting [7]); not below 10 µM in assay [2] (setting [4]); not below 10 µM at PI3K delta (PI3Kd) (setting [8]). Further, the IC50 at PI3K delta (PI3Kd) (setting [5]), on PI3Kβ, on PI3Kγ and on PI3Kα was not below 10 µM throughout.
Regarding `O=C(Nc1ccc(-c2nccc(N3CC4CCC(C3)O4)n2)cc1)NC1CC1` [Example 48, 1-(4-(4-(8-oxa-3-azabicyclo[3.2.1]octan-3-yl)pyrimidin-2-yl)phenyl)-3-cyclopropylurea], the IC50 at mTOR (setting [6]) is 0.1 to 1 µM; at mTOR (setting [3]), 0.1 to 1 µM; in assay [1], 0.1 to 1 µM; in assay [2] (setting [7]), 1 to 10 µM; in assay [2] (setting [4]) it was 1 to 10 µM; at PI3K delta (PI3Kd) (setting [8]) it was not below 10 µM. The IC50 at PI3K delta (PI3Kd) (setting [5]), on PI3Kβ, at PI3Kγ and at PI3Kα was not below 10 µM in each case.
On to `C[C@H]1COCCN1c1cc(-c2cc(F)ccc2S(C)(=O)=O)nc(-c2ccc(NC(=O)NC3CC3)cc2F)n1` [Example 66, (S)-1-cyclopropyl-3-(3-fluoro-4-(4-(5-fluoro-2-(methylsulfonyl)phenyl)-6-(3-methylmorpholino)pyrimidin-2-yl)phenyl)urea], for which the IC50 at mTOR (setting [6]) was 1 to 10 µM; at mTOR (setting [3]), 1 to 10 µM; in assay [1] it was 0.1 to 1 µM; in assay [2] (setting [7]), not below 10 µM; in assay [2] (setting [4]) it was not below 10 µM; at PI3K delta (PI3Kd) (setting [8]) it was not below 10 µM. The IC50 on PI3K delta (PI3Kd) (setting [5]), at PI3Kβ, at PI3Kγ and at PI3Kα was not below 10 µM each time.
With `CCS(=O)(=O)c1ccccc1-c1cc(-c2ccc(NC(=O)NC3CC3)cc2)nc(N2CCOC[C@@H]2C)n1` [Example 87, (S)-1-cyclopropyl-3-(4-(6-(2-(ethylsulfonyl)phenyl)-2-(3-methylmorpholino)pyrimidin-4-yl)phenyl)urea], the IC50 on mTOR (setting [3]) is 0.1 to 1 µM; in assay [1], less than 0.1 µM; in assay [2] (setting [4]), not below 10 µM; at PI3K delta (PI3Kd) (setting [5]), not below 10 µM; at PI3Kβ, not below 10 µM; at PI3Kγ, not below 10 µM. Also, at PI3Kα, the IC50 was not below 10 µM.
Consider `O=C(Nc1ccc(-c2ccnc(N3CC4CCC(C3)O4)n2)cc1)NC1CC1` [Example 57, 1-(4-(2-(8-oxa-3-azabicyclo[3.2.1]octan-3-yl)pyrimidin-4-yl)phenyl)-3-cyclopropylurea], for which the IC50 on mTOR (setting [6]) was 1 to 10 µM; at mTOR (setting [3]), 1 to 10 µM; in assay [1] it was 0.1 to 1 µM; in assay [2] (setting [7]) it was not below 10 µM; in assay [2] (setting [4]), not below 10 µM; on PI3K delta (PI3Kd) (setting [8]), not below 10 µM. The IC50 at PI3K delta (PI3Kd) (setting [5]), at PI3Kβ, on PI3Kγ and on PI3Kα was not below 10 µM in each case.

These data come from patent publication US9249129B2, “Morpholino substituted urea derivatives as mTOR inhibitors” (CELLZOME LIMITED, priority 2010, dated 2016).
